Holding throughout (type): cell-based
One experiment relates to Proteus vulgaris. In words: MIC against Gram-negative bacteria: Proteus vulgaris. Particulars: 10 h cultivation at 37° C.; for MIC / MIC (μg/mL) P. vulgaris: P. vulgaris. The procedure, abridged:
(§1)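 LB broth cultures at McFarland 0.5, spun down, resuspended, diluted to 5×10^5 CFU/mL final. Two-fold serial dilutions of purified human EGF domain proteins, triplicate. 37° C, 175 rpm shaking. Endpoint: no visible growth.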

A further experiment concerns Moraxella catarrhalis. In words: MIC against Gram-negative bacteria: Moraxella catarrhalis. As to conditions: 10 h cultivation at 37° C.; for MIC / MIC (μg/mL) M. catarrhalis: M. catarrhalis. The procedure, abridged: as §1
Another experiment has as its system Enterobacter cloacae. Briefly: MIC against Gram-negative bacteria: Enterobacter cloacae. Particulars: 10 h cultivation at 37° C.; for MIC / MIC (μg/mL) E. cloacae: E. cloacae. In a few lines:
as §1

In the next experiment the test system is E. coli DH5α. Briefly: Antibacterial activity: MIC and growth curve against E. coli DH5α in 96-well plate. As to conditions: minimal inhibitory concentration against E. coli DH5α; 96-well plate, 5×10^5 CFU/mL, 37° C., judged after 8 h. In a few lines:
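Log-phase DH5α (OD600 about 0.5, 37° C, 185 rpm in LB) was pelleted, resuspended in fresh LB and seeded at 5×10^5 CFU/mL with recombinant protein at 50, 25 and 12.5 μg/mL (two-fold series), in triplicate. Plates were shaken at 175 rpm, 37° C, and OD600 was read every 30 min. MIC was the lowest concentration with no growth.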

The subject of a further experiment is Citrobacter diversus. Briefly: MIC against Gram-negative bacteria: Citrobacter diversus. As to conditions: 10 h cultivation at 37° C.; for MIC / MIC (μg/mL) C. diversus: C. diversus. In a few lines: as §1
The next experiment deals with Klebsiella pneumonia. Briefly: MIC against Gram-negative bacteria: Klebsiella pneumonia. As to conditions: 10 h cultivation at 37° C.; for MIC / MIC (μg/mL) K. pneumonia: K. pneumonia. In a few lines: as §1
In a further experiment the test system is Serratia marcescens. In words: MIC against Gram-negative bacteria: Serratia marcescens. Particulars: 10 h cultivation at 37° C.; for MIC / MIC (μg/mL) S. marcescens: S. marcescens. In a few lines: as §1
The test system of another experiment is Pseudomonas aeruginosa. In words: MIC against Gram-negative bacteria: Pseudomonas aeruginosa. As to conditions: 10 h cultivation at 37° C.; for MIC / MIC (μg/mL) P. aeruginosa: P. aeruginosa. In a few lines: as §1
The next experiment concerns Proteus mirabilis. In words: MIC against Gram-negative bacteria: Proteus mirabilis. Particulars: 10 h cultivation at 37° C.; for MIC / MIC (μg/mL) P. mirabilis: P. mirabilis. The procedure, abridged:
as §1

In the next experiment the test system is Aeromonas hydrophila. Briefly: MIC against Gram-negative bacteria: Aeromonas hydrophila. As to conditions: 10 h cultivation at 37° C.; for MIC / MIC (μg/mL) A. hydrophila: A. hydrophila. In a few lines:
as §1

For a further experiment, the system named is E. coli BL21. In words: MIC against Gram-negative bacteria: E. coli BL21. Particulars: 10 h cultivation at 37° C. The procedure, abridged:
as §1

The mark [1] stands for this setting: 5×10^5 CFU/mL, two-fold serial dilution.

These results are taken from patent US9833497B2, “Human originated EGF domain proteins and use of the same” (CHENGDU SOURCEBIO LIMITED-LIABILITY COMPANY, priority 2013, dated 2017).

With “PRT963 (QVDECRSQPCRHGGKCLDLVDKYLCRCPSGTTGVNCE; listed as Homo sapiens)”, the MIC in the experiment with Proteus vulgaris stood at 25 µg/mL; against Moraxella catarrhalis, 12.5 µg/mL; with Enterobacter cloacae, 25 µg/mL; against E. coli DH5α it was 25 µg/mL; in the experiment on Citrobacter diversus, 25 µg/mL; against Klebsiella pneumonia, 12.5 µg/mL. Also, the MIC in the experiment with Serratia marcescens came out at 25 µg/mL; in the experiment with Pseudomonas aeruginosa it was 25 µg/mL; in the experiment with Proteus mirabilis, 50 µg/mL; in the experiment with Aeromonas hydrophila, 50 µg/mL; against E. coli BL21 (E. coli BL21), 50 µg/mL.

For the substance “PRT1433 (PPRRCDSNPCFRGVQCTDSRDGFQCGPCPEGYTGNGITCI; listed as Homo sapiens)”, the “MIC against P. vulgaris” value in the experiment with Proteus vulgaris (Proteus vulgaris, 5×10^5 CFU/mL) worked out at 12.5 µg/mL. In addition, in the experiment on Moraxella catarrhalis (Moraxella catarrhalis, 5×10^5 CFU/mL), the “MIC against M. catarrhalis” value came to 12.5 µg/mL. Also, the “MIC against E. cloacae” value against Enterobacter cloacae (Enterobacter cloacae, 5×10^5 CFU/mL) is 12.5 µg/mL. Besides, the minimum inhibitory concentration (MIC) in the experiment with E. coli DH5α is 12.5 µg/mL. Also, the “MIC against C. diversus” value in the experiment with Citrobacter diversus (Citrobacter diversus, 5×10^5 CFU/mL) came out at 12.5 µg/mL. Further, the “MIC against K. pneumonia” value with Klebsiella pneumonia (Klebsiella pneumonia, 5×10^5 CFU/mL) was determined as 12.5 µg/mL. The “MIC against S. marcescens” value in the experiment on Serratia marcescens (Serratia marcescens, 5×10^5 CFU/mL) stood at 12.5 µg/mL. Besides, the “MIC against P. aeruginosa” value with Pseudomonas aeruginosa (Pseudomonas aeruginosa, 5×10^5 CFU/mL) turned out to be 12.5 µg/mL. Moreover, in the experiment on Proteus mirabilis (Proteus mirabilis, 5×10^5 CFU/mL), the “MIC against P. mirabilis” value was 25 µg/mL. Also, the “MIC against A. hydrophila” value with Aeromonas hydrophila (Aeromonas hydrophila, 5×10^5 CFU/mL) stood at 25 µg/mL. Also, the “MIC against E. coli BL21” value with E. coli BL21 (E. coli BL21, 5×10^5 CFU/mL) came out at 12.5 µg/mL.

For “PRT238 (DICDPNPCENGGICLPGLADGSFSCECPDGFTDPNCS; listed as Homo sapiens)”, the “MIC (μg/mL) P. vulgaris” value in the experiment with Proteus vulgaris (5×10^5 CFU/mL) is 25 µg/mL. For the same substance, the “MIC (μg/mL) M. catarrhalis” value in the experiment with Moraxella catarrhalis (5×10^5 CFU/mL) turned out to be 12.5 µg/mL. For the same substance, in the experiment with Enterobacter cloacae (5×10^5 CFU/mL), the “MIC (μg/mL) E. cloacae” value was 25 µg/mL. This substance also had an MIC in the experiment with E. coli DH5α of 25 µg/mL. Besides, the “MIC (μg/mL) C. diversus” value with Citrobacter diversus (5×10^5 CFU/mL) came out at 25 µg/mL. Moreover, the “MIC (μg/mL) K. pneumonia” value in the experiment with Klebsiella pneumonia (5×10^5 CFU/mL) is 50 µg/mL. The “MIC (μg/mL) S. marcescens” value against Serratia marcescens (5×10^5 CFU/mL) stood at 12.5 µg/mL. Also, the “MIC (μg/mL) P. aeruginosa” value against Pseudomonas aeruginosa (5×10^5 CFU/mL) was determined as 25 µg/mL. The “MIC (μg/mL) P. mirabilis” value in the experiment on Proteus mirabilis (5×10^5 CFU/mL) is 12.5 µg/mL. Besides, the “MIC (μg/mL) A. hydrophila” value with Aeromonas hydrophila (5×10^5 CFU/mL) is 12.5 µg/mL. The “MIC (μg/mL) E. coli BL21” value against E. coli BL21 (E. coli BL21, 5×10^5 CFU/mL) is 12.5 µg/mL.

On to “PRT414 (DIDECESGIHNCLPDFICQNTLGSFRCRPKLQCKSGFIQDALGNCI; listed as Homo sapiens)”, for which the MIC turned out to be 25 µg/mL in the experiment with Proteus vulgaris (5×10^5 CFU/mL); 25 µg/mL in the experiment with Moraxella catarrhalis (5×10^5 CFU/mL); 12.5 µg/mL against Enterobacter cloacae (5×10^5 CFU/mL); 12.5 µg/mL in the experiment on E. coli DH5α; 12.5 µg/mL against Citrobacter diversus (5×10^5 CFU/mL); 12.5 µg/mL in the experiment on Klebsiella pneumonia (5×10^5 CFU/mL). In addition, the MIC stood at 50 µg/mL in the experiment on Serratia marcescens (5×10^5 CFU/mL); 12.5 µg/mL in the experiment with Pseudomonas aeruginosa (5×10^5 CFU/mL); 12.5 µg/mL in the experiment on Proteus mirabilis (5×10^5 CFU/mL); 25 µg/mL in the experiment on Aeromonas hydrophila (5×10^5 CFU/mL); 12.5 µg/mL against E. coli BL21 (E. coli BL21, 5×10^5 CFU/mL).

Regarding “PRT1179 (DIDECASNPCLNGGHCQNEINRFQCLCPTGFSGNLCQ; listed as Homo sapiens)”, in the experiment with Proteus vulgaris (setting [1]), the “MIC P. vulgaris” value was found to be 25 µg/mL. Moreover, the “MIC M. catarrhalis” value against Moraxella catarrhalis (setting [1]) turned out to be 25 µg/mL. Moreover, the “MIC E. cloacae” value in the experiment on Enterobacter cloacae (setting [1]) was 50 µg/mL. In the experiment with E. coli DH5α, this substance came in with a minimal inhibitory concentration (MIC) of 12.5 µg/mL. Besides, the “MIC C. diversus” value in the experiment on Citrobacter diversus (setting [1]) turned out to be 12.5 µg/mL. For the same substance, in the experiment on Klebsiella pneumonia (setting [1]), the “MIC K. pneumonia” value was 12.5 µg/mL. For the same substance, the “MIC S. marcescens” value in the experiment with Serratia marcescens (setting [1]) worked out at 12.5 µg/mL. Moreover, in the experiment on Pseudomonas aeruginosa (setting [1]), the “MIC P. aeruginosa” value came out at 25 µg/mL. In addition, the “MIC P. mirabilis” value against Proteus mirabilis (setting [1]) amounted to 50 µg/mL. The “MIC A. hydrophila” value against Aeromonas hydrophila (setting [1]) came out at 25 µg/mL. For the same substance, the “MIC E. coli BL21” value with E. coli BL21 (setting [1]) was 50 µg/mL.

As to “PRT144 (DKKVCSSNPCQNGGTCLNLHDSFFCICPPQWKGPLCS; listed as Homo sapiens)”, the “MIC (μg/mL) P. vulgaris” value with Proteus vulgaris (5×10^5 CFU/mL) is 50 µg/mL. Besides, the “MIC (μg/mL) M. catarrhalis” value with Moraxella catarrhalis (5×10^5 CFU/mL) was found to be 12.5 µg/mL. Also, the “MIC (μg/mL) E. cloacae” value in the experiment with Enterobacter cloacae (5×10^5 CFU/mL) stood at 12.5 µg/mL. In the experiment on E. coli DH5α, this substance registered a minimum inhibitory concentration (MIC) of 25 µg/mL. Moreover, the “MIC (μg/mL) C. diversus” value against Citrobacter diversus (5×10^5 CFU/mL) amounted to 25 µg/mL. The “MIC (μg/mL) K. pneumonia” value against Klebsiella pneumonia (5×10^5 CFU/mL) stood at 50 µg/mL. Also, the “MIC (μg/mL) S. marcescens” value in the experiment on Serratia marcescens (5×10^5 CFU/mL) is 12.5 µg/mL. The “MIC (μg/mL) P. aeruginosa” value with Pseudomonas aeruginosa (5×10^5 CFU/mL) worked out at 12.5 µg/mL. The “MIC (μg/mL) P. mirabilis” value against Proteus mirabilis (5×10^5 CFU/mL) was determined as 25 µg/mL. Moreover, in the experiment with Aeromonas hydrophila (5×10^5 CFU/mL), the “MIC (μg/mL) A. hydrophila” value stood at 50 µg/mL. Besides, in the experiment on E. coli BL21 (E. coli BL21, 5×10^5 CFU/mL), the “MIC (μg/mL) E. coli BL21” value is 50 µg/mL.

One may read the MIC as the lowest concentration found to suppress growth. A low value points to a more susceptible organism.
